These results are taken from ChEMBL document CHEMBL3822370, “Identification and Development of 2,3-Dihydropyrrolo[1,2-a]quinazolin-5(1H)-one Inhibitors Targeting Bromodomains within the Switch/Sucrose Nonfermenting Complex” (J Med Chem, 2016).

The source made the active and inactive calls. The rule behind the calls is not given here.

One may read the ΔTm as the shift of the melting midpoint relative to a reference. As a reminder, the Kd is the constant that tells how readily two partners part at equilibrium. What is called IC50 is the concentration that gives 50% inhibition.

For data set [1], the target named is T1, Protein polybromo-1 (Homo sapiens, UniProt Q86U86).
Description: Binding affinity to His6-tagged human recombinant PB1 bromodomain isoform 5 expressed in Escherichia coli BL21(DE3)-R3-pRARE2 cells assessed as change in melting temperature at 10 uM by SyproOrange dye based DSF thermal shift assay
Data set [2] addresses T2, SWI/SNF-related matrix-associated actin-dependent regulator of chromatin subfamily A member 4 (Homo sapiens, UniProt P51532). The data set can be described thus: Binding affinity to His6-tagged human recombinant SMARCA4 bromodomain expressed in Escherichia coli BL21(DE3)-R3-pRARE2 cells assessed as change in melting temperature at 10 uM by SyproOrange dye based DSF thermal shift assay.

The target of data set [3] is T1, Protein polybromo-1. The source holds these as a separate data set.
Description: Binding affinity to His6-tagged human recombinant PB1 bromodomain isoform 3 expressed in Escherichia coli BL21(DE3)-R3-pRARE2 cells assessed as change in melting temperature at 10 uM by SyproOrange dye based DSF thermal shift assay
The target of data set [4] is T1, Protein polybromo-1. The source holds these as a separate data set.
Description: Binding affinity to His6-tagged human recombinant PB1 bromodomain 4 expressed in Escherichia coli BL21(DE3)-R3-pRARE2 cells assessed as change in melting temperature at 10 uM by SyproOrange dye based DSF thermal shift assay
Data set [5] concerns the target SWI/SNF-related matrix-associated actin-dependent regulator of chromatin subfamily A member 2 (Homo sapiens) (UniProt P51531). The data set can be described thus: Binding affinity to His6-tagged human recombinant SMARCA2A bromodomain expressed in Escherichia coli BL21(DE3)-R3-pRARE2 cells assessed as change in melting temperature at 10 uM by SyproOrange dye based DSF thermal shift assay.

A short description of data set [6]: Solubility of the compound in DMSO. The data set is classed as physicochemical.
The target of data set [7] is T1, Protein polybromo-1. This is another data set of the same source.
Description: Binding affinity to His6-tagged human recombinant PB1 bromodomain isoform 2 expressed in Escherichia coli BL21(DE3)-R3-pRARE2 cells assessed as change in melting temperature at 10 uM by SyproOrange dye based DSF thermal shift assay
Data set [8] addresses SWI/SNF-related matrix-associated actin-dependent regulator of chromatin subfamily A member 2 (Homo sapiens) (UniProt P51531). As to the kind of experiment: Binding affinity to His6-tagged human recombinant SMARCA2B bromodomain expressed in Escherichia coli BL21(DE3)-R3-pRARE2 cells assessed as change in melting temperature at 10 uM by SyproOrange dye based DSF thermal shift assay.

Data set [9] deals with T1, Protein polybromo-1. As to the kind of experiment: Binding affinity to His6-tagged human recombinant PB1 bromodomain isoform 5 expressed in Escherichia coli BL21(DE3)-R3-pRARE2 cells by VP-ITC microcalorimetry.
Data set [10] addresses T2, SWI/SNF-related matrix-associated actin-dependent regulator of chromatin subfamily A member 4. The data set can be described thus: Inhibition of His6-tagged human recombinant SMARCA4 bromodomain expressed in Escherichia coli BL21(DE3)-R3-pRARE2 cells after 30 mins using biotinylated ligand by Alpha screen displacement assay. Background: Bead proximity is the source of the signal in Alpha formats.

Data set [11] concerns the target T3, E3 ubiquitin-protein ligase TRIM33 (Homo sapiens) (UniProt Q9UPN9).
T3 sequence (whole entry): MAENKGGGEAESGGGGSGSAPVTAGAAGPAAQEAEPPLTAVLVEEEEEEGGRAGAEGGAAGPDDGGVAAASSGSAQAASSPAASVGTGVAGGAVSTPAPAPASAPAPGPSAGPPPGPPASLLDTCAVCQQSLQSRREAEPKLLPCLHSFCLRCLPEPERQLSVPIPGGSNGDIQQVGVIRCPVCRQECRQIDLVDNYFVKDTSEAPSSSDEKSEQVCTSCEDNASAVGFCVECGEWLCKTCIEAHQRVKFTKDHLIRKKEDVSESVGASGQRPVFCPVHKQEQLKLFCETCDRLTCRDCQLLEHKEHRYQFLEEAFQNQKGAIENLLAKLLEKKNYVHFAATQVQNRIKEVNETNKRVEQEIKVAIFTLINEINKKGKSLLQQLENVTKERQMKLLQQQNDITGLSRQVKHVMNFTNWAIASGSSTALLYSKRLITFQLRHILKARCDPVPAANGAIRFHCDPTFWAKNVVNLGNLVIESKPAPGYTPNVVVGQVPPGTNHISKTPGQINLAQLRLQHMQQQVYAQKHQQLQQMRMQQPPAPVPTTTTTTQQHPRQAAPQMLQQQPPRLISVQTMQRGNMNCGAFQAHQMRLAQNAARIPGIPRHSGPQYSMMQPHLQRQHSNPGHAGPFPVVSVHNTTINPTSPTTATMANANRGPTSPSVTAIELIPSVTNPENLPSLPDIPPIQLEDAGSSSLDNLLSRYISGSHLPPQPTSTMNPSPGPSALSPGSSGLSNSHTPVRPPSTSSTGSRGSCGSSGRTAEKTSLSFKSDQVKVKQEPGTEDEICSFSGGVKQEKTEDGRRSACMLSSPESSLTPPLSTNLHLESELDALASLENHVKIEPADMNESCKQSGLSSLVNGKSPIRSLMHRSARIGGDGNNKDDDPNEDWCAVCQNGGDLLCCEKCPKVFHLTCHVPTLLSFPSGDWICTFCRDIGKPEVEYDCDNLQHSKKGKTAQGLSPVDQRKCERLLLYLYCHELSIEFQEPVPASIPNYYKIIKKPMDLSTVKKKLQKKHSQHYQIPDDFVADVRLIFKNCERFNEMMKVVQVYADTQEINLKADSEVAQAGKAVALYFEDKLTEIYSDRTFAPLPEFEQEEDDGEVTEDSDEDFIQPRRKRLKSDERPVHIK
The data set can be described thus: Binding affinity to His6-tagged human recombinant TRIM33B bromodomain expressed in Escherichia coli BL21(DE3)-R3-pRARE2 cells assessed as change in melting temperature at 10 uM by SyproOrange dye based DSF thermal shift assay.

Data set [12] addresses SWI/SNF-related matrix-associated actin-dependent regulator of chromatin subfamily A member 2 (Homo sapiens) (UniProt P51531). As to the kind of experiment: Inhibition of GFP-fused N-terminal full length human recombinant Wild type SMARCA2 transfected in human U2OS cells assessed as displacement of SMARCA2 from chromatin by measuring FRAP recovery time at 1 to 5 uM by laser scanning inverted microscopy relative to control. The data set is classed as cell-based.

Data set [13] addresses Histone acetyltransferase KAT2B (Homo sapiens) (UniProt Q92831). As to the kind of experiment: Binding affinity to His6-tagged human recombinant PCAF bromodomain expressed in Escherichia coli BL21(DE3)-R3-pRARE2 cells assessed as change in melting temperature at 10 uM by SyproOrange dye based DSF thermal shift assay.
Data set [14] deals with Bromodomain-containing protein 4 (Homo sapiens) (UniProt O60885). The data set can be described thus: Binding affinity to His6-tagged human recombinant BRD4 bromodomain 1 expressed in Escherichia coli BL21(DE3)-R3-pRARE2 cells assessed as change in melting temperature at 10 uM by SyproOrange dye based DSF thermal shift assay.
For data set [15], the target named is CREB-binding protein (Homo sapiens) (UniProt Q92793). As to the kind of experiment: Binding affinity to His6-tagged human recombinant CREBBP bromodomain expressed in Escherichia coli BL21(DE3)-R3-pRARE2 cells assessed as change in melting temperature at 10 uM by SyproOrange dye based DSF thermal shift assay.
Data set [16] deals with T2, SWI/SNF-related matrix-associated actin-dependent regulator of chromatin subfamily A member 4. The data set can be described thus: biochemical.
Description: Binding affinity to His6-tagged human recombinant SMARCA4 bromodomain expressed in Escherichia coli BL21(DE3)-R3-pRARE2 cells by VP-ITC microcalorimetry

T2 sequence (P51532 whole entry): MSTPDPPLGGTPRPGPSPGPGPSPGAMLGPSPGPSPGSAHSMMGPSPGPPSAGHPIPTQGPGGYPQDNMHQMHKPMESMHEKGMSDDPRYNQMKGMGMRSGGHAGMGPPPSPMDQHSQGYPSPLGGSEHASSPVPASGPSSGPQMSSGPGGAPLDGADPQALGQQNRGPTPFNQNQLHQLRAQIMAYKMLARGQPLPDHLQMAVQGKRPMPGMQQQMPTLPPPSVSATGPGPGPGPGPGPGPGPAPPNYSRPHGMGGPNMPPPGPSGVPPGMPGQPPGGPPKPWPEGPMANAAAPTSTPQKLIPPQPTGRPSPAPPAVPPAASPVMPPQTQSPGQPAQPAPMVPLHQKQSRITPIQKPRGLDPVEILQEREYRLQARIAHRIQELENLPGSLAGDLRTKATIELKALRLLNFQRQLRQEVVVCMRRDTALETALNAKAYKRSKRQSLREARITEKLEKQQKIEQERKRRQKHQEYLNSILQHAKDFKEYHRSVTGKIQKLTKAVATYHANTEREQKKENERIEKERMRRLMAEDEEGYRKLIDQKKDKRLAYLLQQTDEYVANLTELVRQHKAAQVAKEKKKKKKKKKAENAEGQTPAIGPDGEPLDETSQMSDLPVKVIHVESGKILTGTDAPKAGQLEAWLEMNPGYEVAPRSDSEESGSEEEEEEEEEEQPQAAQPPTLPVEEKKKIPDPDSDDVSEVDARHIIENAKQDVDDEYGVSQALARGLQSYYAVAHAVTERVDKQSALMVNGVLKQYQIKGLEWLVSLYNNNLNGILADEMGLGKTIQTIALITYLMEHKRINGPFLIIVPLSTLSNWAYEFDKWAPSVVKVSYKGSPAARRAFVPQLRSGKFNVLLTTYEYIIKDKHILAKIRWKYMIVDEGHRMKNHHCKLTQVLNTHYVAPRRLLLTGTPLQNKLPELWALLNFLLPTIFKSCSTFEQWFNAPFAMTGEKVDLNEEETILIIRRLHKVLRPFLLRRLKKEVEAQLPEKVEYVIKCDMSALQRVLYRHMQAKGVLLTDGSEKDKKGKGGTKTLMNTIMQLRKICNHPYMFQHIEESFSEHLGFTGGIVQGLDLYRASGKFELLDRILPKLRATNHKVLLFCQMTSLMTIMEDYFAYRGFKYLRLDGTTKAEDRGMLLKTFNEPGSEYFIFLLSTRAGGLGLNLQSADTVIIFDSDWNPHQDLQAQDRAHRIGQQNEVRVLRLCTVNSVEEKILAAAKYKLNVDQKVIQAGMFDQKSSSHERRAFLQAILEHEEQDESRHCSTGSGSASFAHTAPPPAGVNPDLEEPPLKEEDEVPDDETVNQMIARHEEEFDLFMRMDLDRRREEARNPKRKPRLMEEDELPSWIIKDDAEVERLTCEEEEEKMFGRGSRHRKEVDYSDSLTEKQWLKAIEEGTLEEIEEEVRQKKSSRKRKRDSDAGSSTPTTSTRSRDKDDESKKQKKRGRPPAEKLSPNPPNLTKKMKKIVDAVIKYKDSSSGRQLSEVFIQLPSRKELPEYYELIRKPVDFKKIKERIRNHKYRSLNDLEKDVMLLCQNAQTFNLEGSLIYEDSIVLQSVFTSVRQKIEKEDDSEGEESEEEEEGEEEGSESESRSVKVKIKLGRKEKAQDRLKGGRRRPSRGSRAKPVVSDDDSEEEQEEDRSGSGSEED
Sequence of SWI/SNF-related matrix-associated actin-dependent regulator of chromatin subfamily A member 2 (Homo sapiens) (P51531 whole entry, the tested form may be a part): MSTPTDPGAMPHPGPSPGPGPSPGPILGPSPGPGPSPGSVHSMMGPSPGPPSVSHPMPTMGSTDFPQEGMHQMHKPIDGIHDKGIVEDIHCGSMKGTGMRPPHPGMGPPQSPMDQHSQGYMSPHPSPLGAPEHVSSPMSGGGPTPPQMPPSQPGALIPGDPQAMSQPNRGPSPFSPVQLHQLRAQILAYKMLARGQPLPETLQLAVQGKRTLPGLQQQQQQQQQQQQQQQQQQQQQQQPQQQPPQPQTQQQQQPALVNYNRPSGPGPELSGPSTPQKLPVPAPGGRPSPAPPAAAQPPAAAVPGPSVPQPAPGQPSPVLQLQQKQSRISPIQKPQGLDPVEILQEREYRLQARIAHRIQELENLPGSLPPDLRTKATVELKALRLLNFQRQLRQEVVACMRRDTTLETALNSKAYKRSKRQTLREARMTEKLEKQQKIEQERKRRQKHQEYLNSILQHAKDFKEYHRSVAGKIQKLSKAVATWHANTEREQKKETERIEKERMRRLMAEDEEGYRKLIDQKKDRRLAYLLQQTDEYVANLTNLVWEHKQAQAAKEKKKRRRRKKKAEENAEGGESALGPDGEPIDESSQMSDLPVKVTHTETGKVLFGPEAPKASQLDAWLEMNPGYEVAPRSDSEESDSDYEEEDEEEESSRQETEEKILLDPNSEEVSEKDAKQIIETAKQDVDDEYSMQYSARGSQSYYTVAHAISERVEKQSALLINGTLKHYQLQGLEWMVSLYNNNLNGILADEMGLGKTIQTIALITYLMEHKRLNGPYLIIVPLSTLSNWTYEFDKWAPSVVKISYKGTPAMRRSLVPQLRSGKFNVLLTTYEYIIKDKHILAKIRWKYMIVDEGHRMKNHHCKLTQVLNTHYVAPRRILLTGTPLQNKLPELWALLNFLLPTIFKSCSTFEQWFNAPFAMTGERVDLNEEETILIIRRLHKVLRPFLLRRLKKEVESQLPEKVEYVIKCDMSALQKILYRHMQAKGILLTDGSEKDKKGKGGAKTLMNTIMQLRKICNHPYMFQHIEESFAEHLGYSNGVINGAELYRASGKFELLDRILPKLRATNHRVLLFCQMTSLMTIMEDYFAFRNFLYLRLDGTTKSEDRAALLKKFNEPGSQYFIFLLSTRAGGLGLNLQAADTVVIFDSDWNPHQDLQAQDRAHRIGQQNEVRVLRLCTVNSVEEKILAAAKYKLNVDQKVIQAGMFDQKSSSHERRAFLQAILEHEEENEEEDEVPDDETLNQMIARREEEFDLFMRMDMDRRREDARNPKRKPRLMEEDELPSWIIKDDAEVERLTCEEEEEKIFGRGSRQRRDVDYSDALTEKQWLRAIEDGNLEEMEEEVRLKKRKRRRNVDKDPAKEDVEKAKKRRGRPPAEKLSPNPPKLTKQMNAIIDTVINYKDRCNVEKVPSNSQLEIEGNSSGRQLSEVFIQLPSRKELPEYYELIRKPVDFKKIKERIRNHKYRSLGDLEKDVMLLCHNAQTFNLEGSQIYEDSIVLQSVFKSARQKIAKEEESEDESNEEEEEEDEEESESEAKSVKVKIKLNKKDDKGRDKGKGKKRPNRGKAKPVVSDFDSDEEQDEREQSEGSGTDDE
T1 sequence (Q86U86 whole entry): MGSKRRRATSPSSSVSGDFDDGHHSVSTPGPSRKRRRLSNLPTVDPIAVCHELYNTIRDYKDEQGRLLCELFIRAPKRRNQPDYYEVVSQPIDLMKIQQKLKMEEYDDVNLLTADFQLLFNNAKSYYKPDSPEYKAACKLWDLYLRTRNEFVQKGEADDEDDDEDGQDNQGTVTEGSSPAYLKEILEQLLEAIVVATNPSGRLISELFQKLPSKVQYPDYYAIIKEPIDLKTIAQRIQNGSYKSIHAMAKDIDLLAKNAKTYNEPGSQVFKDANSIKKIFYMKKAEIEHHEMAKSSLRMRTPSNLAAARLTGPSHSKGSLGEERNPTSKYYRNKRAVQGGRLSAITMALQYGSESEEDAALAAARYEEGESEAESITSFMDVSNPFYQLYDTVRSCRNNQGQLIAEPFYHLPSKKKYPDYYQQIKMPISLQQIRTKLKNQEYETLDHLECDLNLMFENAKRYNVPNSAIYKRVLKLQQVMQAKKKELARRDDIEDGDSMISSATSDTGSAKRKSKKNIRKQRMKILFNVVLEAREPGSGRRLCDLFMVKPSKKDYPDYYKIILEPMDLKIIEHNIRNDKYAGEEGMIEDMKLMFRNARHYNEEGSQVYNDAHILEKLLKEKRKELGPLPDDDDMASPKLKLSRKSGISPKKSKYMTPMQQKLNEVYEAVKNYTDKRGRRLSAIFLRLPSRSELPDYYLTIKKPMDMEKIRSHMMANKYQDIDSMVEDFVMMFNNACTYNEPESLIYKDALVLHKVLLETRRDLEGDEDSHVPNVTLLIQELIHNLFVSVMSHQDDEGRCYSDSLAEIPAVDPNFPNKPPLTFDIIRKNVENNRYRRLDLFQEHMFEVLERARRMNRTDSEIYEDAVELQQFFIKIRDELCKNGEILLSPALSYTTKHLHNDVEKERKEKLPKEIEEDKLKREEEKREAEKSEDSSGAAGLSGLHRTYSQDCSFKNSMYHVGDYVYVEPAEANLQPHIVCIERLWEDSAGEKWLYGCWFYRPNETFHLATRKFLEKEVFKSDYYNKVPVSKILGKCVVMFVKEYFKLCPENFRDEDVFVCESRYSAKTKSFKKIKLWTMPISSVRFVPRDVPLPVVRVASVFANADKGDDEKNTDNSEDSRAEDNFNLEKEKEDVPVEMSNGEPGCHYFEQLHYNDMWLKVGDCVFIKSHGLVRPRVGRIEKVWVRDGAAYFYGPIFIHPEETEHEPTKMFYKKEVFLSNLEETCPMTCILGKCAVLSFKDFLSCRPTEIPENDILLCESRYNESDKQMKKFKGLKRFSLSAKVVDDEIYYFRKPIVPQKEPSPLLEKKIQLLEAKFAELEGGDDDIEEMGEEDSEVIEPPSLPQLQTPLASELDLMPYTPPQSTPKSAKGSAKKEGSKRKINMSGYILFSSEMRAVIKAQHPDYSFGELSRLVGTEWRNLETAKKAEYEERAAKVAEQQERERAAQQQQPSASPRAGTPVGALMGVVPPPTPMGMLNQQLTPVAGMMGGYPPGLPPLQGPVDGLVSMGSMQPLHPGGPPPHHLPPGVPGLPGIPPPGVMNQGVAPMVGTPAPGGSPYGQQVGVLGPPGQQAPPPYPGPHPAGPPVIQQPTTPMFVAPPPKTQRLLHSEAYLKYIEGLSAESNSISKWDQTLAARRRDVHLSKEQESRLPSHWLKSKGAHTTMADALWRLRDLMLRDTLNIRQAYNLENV

For `CC(C)(C)OC(=O)N1CCN(/C=C2\CCn3c2nc(=O)c2ccccc23)CC1`, the ΔTm in [1] is 3.7 °C.
`CCN1CCN(/C=C2\CCn3c2nc(=O)c2c(Cl)cccc23)CC1`: the ΔTm came to 5.6 °C in data set [2]; 1.4 °C in [3]; 0.9 °C in data set [4]; 9.2 °C in data set [1]; 4.8 °C in [5]; 4 °C in data set [7]. The ΔTm in [8] is 4.1 °C. Moreover, in data set [6], the solubility entry is “soluble”. The K in [9] was 7.05 ×10⁶ /M. Besides, the Kd in data set [9] stood at 142 nM.
Regarding `CN(C)/C=C1\CCn2c1nc(=O)c1ccccc12`, the ΔTm in [1] stood at 4.2 °C. For the same compound, in [10], the IC50 amounted to 11 µM.
`COc1cccc2c1c(=O)nc1n2CC/C1=C\N(C)C`: in data set [1], the ΔTm is -0.7 °C.
For the compound `O=c1nc2n(c3cccc(Cl)c13)CC/C2=C\N1CCCCC1`, the ΔTm worked out at 5.3 °C in data set [2]; 0.8 °C in data set [3]; 0.9 °C in data set [4]; 9.8 °C in [1]; 6.3 °C in data set [5]; 4.7 °C in [7]. Besides, the ΔTm in data set [8] was 4.3 °C. For the same compound, in data set [6], the solubility entry is on record as “soluble”. The Kd in [9] came out at 127 nM.
For `O=c1nc2n(c3ccccc13)CC/C2=C\N1CCCCC1`, the ΔTm in [1] worked out at 5 °C. In addition, the IC50 in [10] came to 6.2 µM. Also, the Kd in [9] was 1200 nM.
Turning to `O=c1nc2n(c3ccccc13)CC/C2=C\c1ccoc1`, in [1], the shift in melting temperature (ΔTm) was 3.7 °C.
On the same count and under the same terms, in the case of `CN(C)/C=C1\CCn2c1nc(=O)c1c(F)cccc12` it was 1.4 °C.
As for `O=c1nc2n(c3ccccc13)CC/C2=C\N1CCCC1`, the ΔTm in data set [1] came out at 5.8 °C. Moreover, the IC50 in data set [10] worked out at 9.6 µM. Moreover, the Kd in data set [9] was 2300 nM.
As for `CCC(/C=C1\CCn2c1nc(=O)c1c(Cl)cccc12)CC`, the ΔTm in data set [2] was 2.9 °C; in [3], 3.1 °C; in [4] it was 2.7 °C; in data set [1], 10.2 °C; in data set [5] it was 3.5 °C; in [7], 7.1 °C. Moreover, the ΔTm in data set [8] was 2.5 °C. Moreover, in data set [9], the K worked out at 5.88 ×10⁶ /M.
Regarding `O=c1nc2n(c3cccc(Cl)c13)CC/C2=C\N1CCCC1`, the ΔTm in data set [2] stood at 1.4 °C; in data set [3] it was 0.2 °C; in data set [4], 0.4 °C; in [1], 6.9 °C; in data set [5], 2.6 °C; in [7] it was 1.2 °C. In addition, the ΔTm in [8] is 1.3 °C.
Regarding `O=c1nc2n(c3cccc(Cl)c13)CC/C2=C\N1CCOCC1`, the ΔTm in [2] is 2.7 °C; in data set [3], 0.4 °C; in data set [4], 0.3 °C; in data set [1], 7.4 °C; in [5] it was 2.8 °C; in [7] it was 1.9 °C. Besides, the ΔTm in [8] was found to be 1.7 °C.
As to `O=c1nc2n(c3cccc(Cl)c13)CC/C2=C\C1CCCCC1`, the ΔTm in data set [2] came out at 2 °C; in [3] it was 0.4 °C; in data set [4], 0.7 °C; in [1] it was 6.6 °C; in data set [5], 2.5 °C; in data set [7], 2.7 °C. Further, the ΔTm in data set [8] worked out at 1.6 °C.
Take `CCN(/C=C1\CCn2c1nc(=O)c1ccccc12)CC`: the ΔTm in data set [1] was found to be 4.3 °C.
With `O=c1nc2n(c3cccc(Cl)c13)CC/C2=C\C1CCOCC1`, the ΔTm stood at 2.8 °C in data set [2]; 1.6 °C in [3]; 1.2 °C in data set [4]; 8.2 °C in [1]; 3.4 °C in data set [5]; 3.4 °C in data set [7]. Moreover, the ΔTm in data set [8] is 2.3 °C.
On to `CN(C)/C=C1\CCn2c1nc(=O)c1c(Br)cccc12`, for which, in data set [1], the ΔTm came out at 6.9 °C.
Regarding `CN1CCN(/C=C2\CCn3c2nc(=O)c2c(Cl)cccc23)CC1`, the outcome in [11], in data set [13], in data set [14] and in data set [15] was inactive. For the same compound, in [12], the inhibition result is “Active”. In addition, the ΔTm in data set [2] came to 5.4 °C; in [3], 1.3 °C; in [4] it was 1.1 °C; in [1], 10.2 °C; in data set [5] it was 6.6 °C; in data set [7], 4.3 °C. The ΔTm in data set [8] is 4.2 °C. In [6], the solubility entry is “soluble”. Also, the K in [9] came to 8.09 ×10⁶ /M. The affinity in [16], expressed as Kd, was 417 nM.
As for `CN1CCN(/C=C2\CCn3c2nc(=O)c2ccccc23)CC1`, the ΔTm in data set [1] turned out to be 3.5 °C. The IC50 in [10] amounted to 7.3 µM.
For `CCCN(/C=C1\CCn2c1nc(=O)c1ccccc12)CCC`, in [1], the ΔTm was determined as 4.4 °C.
Still for that read-out and setting: as for `CN(C)/C=C1\CCn2c1nc(=O)c1c(O)cccc12`, the figure is 3.4 °C.
On to `CN(C)/C=C1\CCn2c1nc(=O)c1c(Cl)cccc12`, for which the thermal shift (ΔTm) in data set [2] was 3.6 °C; in data set [3], 1 °C; in data set [4], 0.4 °C; in data set [1] it was 8.4 °C; in data set [5], 4.4 °C; in [7] it was 2.2 °C. Besides, the ΔTm in data set [8] amounted to 2.7 °C. For the same compound, in [9], the Kd turned out to be 137 nM.
In the case of `Cc1cccc2c1c(=O)nc1n2CC/C1=C\N(C)C`, the ΔTm in [1] came out at 1.4 °C.
For the compound `CCN1CCN(/C=C2\CCn3c2nc(=O)c2ccccc23)CC1`, the thermal shift (ΔTm) in [1] was 4.3 °C. Also, the IC50 in [10] came out at 6.9 µM.
In the case of `CCN(/C=C1\CCn2c1nc(=O)c1c(Cl)cccc12)CC`, the ΔTm in [2] was 2.8 °C; in [3], 0.2 °C; in data set [4], 0.6 °C; in data set [1] it was 7.3 °C; in [5] it was 3.6 °C; in [7] it was 2.9 °C. Also, the ΔTm in data set [8] was determined as 2.5 °C.
As for `O=c1nc2n(c3ccccc13)CC/C2=C\N1CCOCC1`, the ΔTm in data set [1] came to 4.7 °C.
Regarding `CN1CCC(/C=C2\CCn3c2nc(=O)c2c(Cl)cccc23)CC1`, the ΔTm in data set [2] came to 1.1 °C; in [3], 0.7 °C; in data set [4], 0.8 °C; in data set [1] it was 6 °C; in data set [5], 1.4 °C; in data set [7], 1.4 °C. For the same compound, the ΔTm in [8] is 1 °C.
`CN1CCCN(/C=C2\CCn3c2nc(=O)c2ccccc23)CC1`: in data set [1], the ΔTm is 2.5 °C. For the same compound, in data set [10], the IC50 was determined as 22 µM.
Turning to `CC(C)N(/C=C1\CCn2c1nc(=O)c1ccccc12)C(C)C`, in data set [1], the ΔTm stood at 1.1 °C.
